Series [1] concerns the target T1, α1G T-type calcium channel (Homo sapiens, UniProt O43497).
T1 construct: host or cells: HEK293
The experiment in a line: Assay for % inhibiting activity against T-type calcium channel using FDSS6000. It counts as cell-based. The following applies: HEK293 cells expressing α1G; for inhibition at 10 µM: HEK293, 10 μM. Here is the method:
In the present invention, in order to search an efficient inhibitor against T-type calcium channel, a primary assay for T-type calcium channel inhibiting activity was conducted by a high-efficient assay using FDSS6000, wherein mammal HEK293 cell lines (originated from human kidney carcinoma cells) which specifically expresses α1G of T-type calcium channel was used for primary assay. Through the primary assay, compounds which show meaningful inhibition effects were selected. The selected compounds were used in a second assay for T-type calcium channel inhibiting activity using electrophysiological whole cell patch clamp method, wherein mammal HEK293 cell lines (originated from human kidney carcinoma cells) which specifically expresses α1G of T-type calcium channel was used for the second assay.
At 12-24 hours before being used for this assay, cells of HEK293 cell line (α1G cell line: KCTC 10519BP, Korean Collection for Type Cultures), which stably express α1G T-type calcium channel and Kir2.1, were sub-cultured in a poly-L-lysine treated 96-well plate with the density of 4×10^4 per a well using a 96-well cell dispenser (Titertek). On the of assay, the 96-well plate to which the cells were attached were washed three times with HEPES buffer solution (150 mM of NaCl, 5 mM of KCl, 1 mM of MgCl2, 2 mM of CaCl2, 10 mM of HEPES, 10 mM of glucose; pH 7.4) using a 96-well plate automatic washing device (Bio Tek), then reacted with HEPES buffer solution containing 5 μM fluo-3/AM and 0.001% Pluronic F-127 under room temperature for 1 hour, to label with fluorescent dye, and then further washed two times with HEPES buffer solution.
Thereafter, at 10 minutes before the measurement using device FDSS6000, a washing with HEPES buffer solution containing 10 mM CaCl2 was conducted once more, and the final volume was adjusted to 81 μl. Besides the above 96-well plate containing the cells, additional two drug 96-well plates were provided, wherein the 96-well plates contain inhibiting drug and KCl (final concentration: 75 mM) for activating T-type calcium channel, respectively. Since most of cell-based HTS devices are equipped with a liquid application system for injection of drug, but have no liquid sucking system, the inhibiting drug to be tested and KCl were respectively provided at the five-times higher concentration in 10 mM CaCl2 HEPES buffer solution at the amount of 27 μl, diluted five-times at the final cell plate volume of 135 μl, and then used in this test. The concrete method of measurement using FDSS6000 was as follows: After recording the reference value of 20 seconds, the change of intracellular Ca^2+ concentration which induced by treatment of the inhibiting drug to be tested for 75 seconds followed by administration of KCl was measured, wherein the percentage (%) inhibition effect of the test drug, through estimating the area of ratio value of 340/380 in the control without treatment of the test drug as 100%. As a reference drug, mibefradil was used.
For accurate calcium-imagination, the light source of 4 xenon lamps in FDSS6000 were radiated to make the cells exposed selectively to the excitation wavelength (340 nm and 380 nm) by computer-controlled filter wheel. Data was obtained at interval of each 1.23 second. The emitter fluorescence light inflowed through long-pass filter was obtained as an average 340/380 ratio value for each well in the 96-wells by using CCD camera and digital fluorescence analyzer in FDSS6000. All image data and analyses were obtained by using FDSS6000-exclusive program provide from Hamamatsu Photonics.

[2] abbreviates: Table 3 (Chemical Formula 2 series).
[3] abbreviates: Table 4 (Chemical Formula 3 series).

As a reminder, the inhibition is the change of the read-out against control, counted positive when it falls. By melting point is commonly meant the temperature of the solid-liquid transition.

T1 sequence (O43497 whole entry): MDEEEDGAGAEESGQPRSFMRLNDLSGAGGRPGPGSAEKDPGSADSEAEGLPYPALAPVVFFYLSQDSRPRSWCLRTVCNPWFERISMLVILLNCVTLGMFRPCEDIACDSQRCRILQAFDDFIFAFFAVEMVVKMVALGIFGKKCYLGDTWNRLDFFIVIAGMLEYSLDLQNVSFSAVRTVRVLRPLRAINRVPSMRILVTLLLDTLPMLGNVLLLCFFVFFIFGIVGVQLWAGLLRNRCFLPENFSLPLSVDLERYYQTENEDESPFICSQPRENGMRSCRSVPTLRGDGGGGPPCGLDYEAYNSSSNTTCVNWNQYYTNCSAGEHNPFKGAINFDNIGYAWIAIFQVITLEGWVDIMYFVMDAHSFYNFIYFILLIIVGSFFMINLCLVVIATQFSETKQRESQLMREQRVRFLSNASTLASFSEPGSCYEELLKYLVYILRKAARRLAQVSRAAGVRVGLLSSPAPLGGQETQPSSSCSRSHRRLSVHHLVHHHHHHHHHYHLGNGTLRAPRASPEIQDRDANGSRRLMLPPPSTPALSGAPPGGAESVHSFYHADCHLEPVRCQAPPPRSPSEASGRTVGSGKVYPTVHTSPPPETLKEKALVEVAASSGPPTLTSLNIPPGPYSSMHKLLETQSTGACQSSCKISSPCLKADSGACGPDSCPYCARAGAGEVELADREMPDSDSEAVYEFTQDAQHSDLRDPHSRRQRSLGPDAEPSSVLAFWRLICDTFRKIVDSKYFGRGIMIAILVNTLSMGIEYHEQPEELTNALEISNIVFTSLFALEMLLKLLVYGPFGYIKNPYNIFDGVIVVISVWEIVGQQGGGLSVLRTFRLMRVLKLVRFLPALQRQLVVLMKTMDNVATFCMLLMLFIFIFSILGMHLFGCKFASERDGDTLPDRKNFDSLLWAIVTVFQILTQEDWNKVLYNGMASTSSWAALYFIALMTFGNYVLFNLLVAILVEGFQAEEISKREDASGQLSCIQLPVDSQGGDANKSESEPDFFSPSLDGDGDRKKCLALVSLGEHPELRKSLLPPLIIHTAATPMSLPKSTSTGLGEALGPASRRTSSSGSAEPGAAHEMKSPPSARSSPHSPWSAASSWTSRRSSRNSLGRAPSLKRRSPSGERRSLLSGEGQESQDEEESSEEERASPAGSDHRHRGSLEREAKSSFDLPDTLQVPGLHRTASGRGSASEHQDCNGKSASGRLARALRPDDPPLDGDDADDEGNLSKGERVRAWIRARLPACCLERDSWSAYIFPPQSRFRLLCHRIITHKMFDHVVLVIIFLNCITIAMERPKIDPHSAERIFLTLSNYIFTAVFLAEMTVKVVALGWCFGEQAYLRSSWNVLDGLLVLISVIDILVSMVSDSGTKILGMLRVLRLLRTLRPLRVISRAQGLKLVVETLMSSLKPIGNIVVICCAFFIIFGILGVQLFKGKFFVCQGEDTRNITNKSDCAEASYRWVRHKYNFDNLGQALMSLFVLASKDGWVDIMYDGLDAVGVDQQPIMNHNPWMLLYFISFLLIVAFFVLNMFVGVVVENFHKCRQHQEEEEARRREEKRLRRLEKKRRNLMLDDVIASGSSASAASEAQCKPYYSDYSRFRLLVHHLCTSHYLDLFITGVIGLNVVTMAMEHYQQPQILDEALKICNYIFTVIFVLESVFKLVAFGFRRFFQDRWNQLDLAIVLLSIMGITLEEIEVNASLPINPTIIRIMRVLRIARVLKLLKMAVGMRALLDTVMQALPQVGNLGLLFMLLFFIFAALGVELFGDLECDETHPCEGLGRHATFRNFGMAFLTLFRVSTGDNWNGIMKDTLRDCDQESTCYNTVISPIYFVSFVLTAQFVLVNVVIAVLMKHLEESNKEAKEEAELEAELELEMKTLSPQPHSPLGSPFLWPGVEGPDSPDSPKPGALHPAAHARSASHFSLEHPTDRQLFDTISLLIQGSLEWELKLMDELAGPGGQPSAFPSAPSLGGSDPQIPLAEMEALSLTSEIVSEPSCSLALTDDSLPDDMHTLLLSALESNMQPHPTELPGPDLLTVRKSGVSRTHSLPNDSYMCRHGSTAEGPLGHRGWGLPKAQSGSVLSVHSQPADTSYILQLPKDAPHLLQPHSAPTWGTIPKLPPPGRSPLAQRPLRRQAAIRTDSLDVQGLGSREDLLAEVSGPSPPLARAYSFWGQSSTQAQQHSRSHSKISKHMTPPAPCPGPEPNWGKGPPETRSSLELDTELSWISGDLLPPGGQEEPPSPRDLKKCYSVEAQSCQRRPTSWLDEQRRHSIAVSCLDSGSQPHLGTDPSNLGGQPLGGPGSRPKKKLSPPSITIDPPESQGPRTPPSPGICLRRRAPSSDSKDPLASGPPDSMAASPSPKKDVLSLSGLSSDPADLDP

Turning to `Cl.NC(N)=Nc1nc(CC(=O)Nc2ccccc2)cs1` [KHG23177, 2-(2-(diaminomethyleneamino)thiazole-4-yl)-N-phenylacetamide hydrochloride], the melting point lay in the range of 197.8 to 198.1 °C. The inhibition at 10 µM in series [1] (setting [2]) is 23.3%.

Regarding `Cc1ccc(NC(=O)Cc2csc(N=C(N)N)n2)cc1Cl.Cl` [KHG23170, N-(3-chloro-4-methylphenyl)-2-(2-(diaminomethyleneamino)thiazole-4-yl)acetamide hydrochloride], the melting point is 238.6 to 240.4 °C. The “% Inhibition [α1G, 10 μM) using FDSS6000” value in series [1] (10 μM, Table 3 (Chemical Formula 2 series), hydrochloride) worked out at 30.68%.

As to `Br.COc1ccccc1-c1csc(N=C(N)N)n1` [KHG24374, 2-(4-(2-methoxyphenyl)thiazole-2-yl)guanidine hydrobromide], the melting point worked out at 245.4 °C. In series [1] (setting [3]), the inhibition at 10 µM worked out at 20.7%.

Turning to `Br.NC(N)=Nc1nc(-c2cc(F)ccc2F)cs1` [KHG24391, 2-(4-(2,5-difluorophenyl)thiazole-2-yl)guanidine hydrobromide], the melting point is 252.1 °C. The inhibition at 10 µM in series [1] (setting [3]) was 20.8%.

For `Cl.NC(N)=Nc1nc(CC(=O)Nc2ccc(Cl)cc2F)cs1` [KHG23173, N-(4-chloro-2-fluorophenyl)-2-(2-(diaminomethyleneamino)thiazole-4-yl)acetamide hydrochloride], the melting point fell in the range of 237.2 to 239.8 °C. Moreover, the inhibition at 10 µM in series [1] (setting [2]) is 28.1%.

`Cc1ccc(NC(=O)Cc2csc(N=C(N)N)n2)cc1.Cl` [KHG23175, 2-(2-(diaminomethyleneamino)thiazole-4-yl)-N-p-tolylacetamide hydrochloride] returned a melting point of 236.2 to 238.3 °C. The inhibition at 10 µM in series [1] (setting [2]) amounted to 23.8%.

In the case of `Cl.NC(N)=Nc1nc(CC(=O)Nc2ccc(Cl)cc2)cs1` [KHG23184, N-(4-chlorophenyl)-2-(2-(diaminomethyleneamino)thiazole-4-yl)acetamide hydrochloride], the melting point lay in the range of 244.3 to 245 °C. Further, the inhibition at 10 µM in series [1] (setting [2]) was 24.9%.

Take `Cc1ccc(CCNC(=O)Cc2csc(N=C(N)N)n2)cc1.Cl` [KHG23188, 2-(2-(diaminomethyleneamino)thiazole-4-yl)-N-(4-methylphenethyl)acetamide hydrochloride]: the melting point lay in the range of 169.3 to 170.1 °C. Further, in series [1] (setting [2]), the inhibition at 10 µM was determined as 19.3%.

`Cl.NC(N)=Nc1nc(-c2ccc(F)cc2)cs1` [KHG24025, 2-(4-(4-fluorophenyl)thiazole-2-yl)guanidine hydrochloride] had a melting point of 223.3 °C. The inhibition at 10 µM in series [1] (setting [3]) came out at 19.9%.

With `Br.NC(N)=Nc1nc(-c2cccc(F)c2)cs1` [KHG24383, 2-(4-(3-fluorophenyl)thiazole-2-yl)guanidine hydrobromide], the melting point is 242.1 °C. The inhibition at 10 µM in series [1] (setting [3]) is 21.6%.

With `Cl.NC(N)=Nc1nc(CC(=O)Nc2ccc(F)cc2)cs1` [KHG23171, 2-(2-(diaminomethyleneamino)thiazole-4-yl)-N-(4-fluorophenyl)acetamide hydrochloride], the melting point lay in the range of 207.3 to 208.2 °C. Also, the inhibition at 10 µM in series [1] (setting [2]) came to 21.5%.

For the compound `Br.NC(N)=Nc1nc(-c2ccccc2Cl)cs1` [KHG24373, 2-(4-(2-chlorophenyl)thiazole-2-yl)guanidine hydrobromide], the melting point was 211.9 °C. In addition, in series [1] (setting [3]), the inhibition at 10 µM stood at 21.7%.

Consider `CCc1ccc(NC(=O)Cc2csc(N=C(N)N)n2)cc1.Cl` [KHG23186, 2-(2-(diaminomethyleneamino)thiazole-4-yl)-N-(4-ethylphenyl)acetamide hydrochloride], for which the melting point was 228 to 229.1 °C. Also, the inhibition at 10 µM in series [1] (setting [2]) is 29.8%.

In the case of `Cl.NC(N)=Nc1nc(-c2ccc(F)cc2F)cs1` [KHG24026, 2-(4-(2,4-difluorophenyl)thiazole-2-yl)guanidine hydrochloride], the melting point came to 248.9 °C. Also, the inhibition at 10 µM in series [1] (setting [3]) was found to be 19.8%.
